# In US20230338395A1, “PROPHYLAXIS AND TREATMENT OF CORONAVIRUS INFECTION” (priority 2020, published 2023):
# Experiments:
# [1] = system: SARS-CoV-2; assay: Pulmonary inflammation after SARS-CoV-2 challenge in MRL-Fas lpr mice; type: in vivo; details: 40 mg/kg/day intraperitoneal from around day 15 after viral clearance, lungs inspected at day 40 post infection
# [2] = system: tlr7 gene expression; details: SLE-patients; cited from earlier work
# [3] = system: COVID-19; details: severely ill COVID-19 patients; cited from earlier work
# [4] = system: classical swine fever; set-up: species or system pigs; details: pig, in vivo, 0.1 mg/kg
# [5] = system: SARS-CoV-1; set-up: species or system mice; details: mouse, in vivo
# [6] = system: lethal respiratory virus infections; details: aged mice, intranasal treatment; cited from earlier work
compound,measurement,setting,value
CCN(CCO)CCCC(C)Nc1ccnc2cc(Cl)ccc12 (stereo not shown) [hydroxychloroquine],severity of pulmonary inflammation (score 0-4),[1],improved
C=C1CC[C@H](O)C/C1=C/C=C1\CCC[C@]2(C)[C@@H]([C@H](C)CCCC(C)C)CC[C@@H]12 [vitamin D3],tlr7 gene expression,[2],down-regulating tlr7 gene expression
same,protection from thrombosis and embolism,[3],protect severely ill COVID-19 patients from thrombosis and embolism
Polyinosinic:polycytidylic acid [poly(IC)],infection fatality rate,[4],lower than the infection fatality rate of the untreated subpopulation
same,protection compared with the other tlr agonists,[5],most protective
same,survival,[5],increase survival
same,protection from lethal respiratory virus infections,[6],protects aged mice from lethal respiratory virus infections
